What is called EC50 is the concentration at which the effect is half-maximal.

In one assay the target is T1, hS1P4 (Homo sapiens, UniProt O95977).
T1 construct: expressed in transfected cells; host or cells: CHO
T1 sequence (O95977 1-384): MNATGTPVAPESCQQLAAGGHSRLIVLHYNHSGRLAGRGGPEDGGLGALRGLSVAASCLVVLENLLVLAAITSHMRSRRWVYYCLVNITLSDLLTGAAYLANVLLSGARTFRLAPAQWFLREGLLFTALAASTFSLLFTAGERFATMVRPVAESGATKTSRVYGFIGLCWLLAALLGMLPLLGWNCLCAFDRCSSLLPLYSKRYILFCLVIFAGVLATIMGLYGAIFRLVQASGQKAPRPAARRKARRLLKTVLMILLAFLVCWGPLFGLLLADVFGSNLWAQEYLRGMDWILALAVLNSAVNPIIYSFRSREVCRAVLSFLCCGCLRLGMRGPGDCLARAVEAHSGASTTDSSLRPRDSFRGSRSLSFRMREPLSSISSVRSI
The assay can be described thus: Tango β-arrestin recruitment luciferase assay, Tango-hS1P4-CHO. Format: cell-based. The following applies: β-arrestin recruitment; 20 h drug treatment; top 45 µM, 9 serial 5-fold dilutions; positive control 25 µM BAF-312; read-out: Tango-hS1P4-CHO EC50. The text has this: (§1) The Tango assay detects ligand-dependent GPCR activity through the interaction between β-arrestin and GPCRs. […] The NTEV fragment and the tetracycline transactivator (tTA), an artificial transcription factor, are fused at the C-terminus of the GPCR, while the CTEV fragment is fused to human β-arrestin 2. To enhance the stability of the interaction between GPCR and β-arrestin, a short sequence from the C-terminus of the human arginine vasopressin receptor 2 (V2 tail) is inserted between the GPCR and NTEV. The V2 tail contains multiple GRK phosphorylation sites, which strengthen β-arrestin binding upon phosphorylation. The CTEV fragment carries the stabile point mutation S219P and is truncated at residue 221 to remove the autoinhibitory C-terminal tail. Meanwhile, β-arrestin 2 is truncated to lack the entire C-terminal tail (residues 383-410 deleted). This truncation confers robust stimulus-dependent receptor desensitization, thereby improving detection sensitivity compared with wild-type β-arrestin 2. The UAS reporter construct consists of upstream activating sequence (UAS) elements, a minimal CMV promoter, and a tTA-dependent luciferase reporter gene. Therefore, constructing Tango cells requires the co-transfection of the above three plasmids into host cells. Upon GPCR activation and β-arrestin recruitment, the TEV enzyme at the β-arrestin terminus cleaves tTA from the GPCR C-terminus. The released tTA initiates tTA-dependent luciferase transcription, and compound activity is ultimately determined by measuring luminescence intensity.
(§2) • 1) Tango cell line from was digested from the culture dish respectively. After cell counting, the cells were plated at a density of 10,000 cells per well with […] into a white opaque 96-well plate (add 60 µL D'Hanks to the surrounding wells), and incubated overnight (20 h) in a 5% CO2 incubator at 37°C. The cell density will reach approximately 90% the next day. • 2) After 20 h, 30 µL of serially diluted compound solution was added to each well. The control group was supplemented with 30 µL F12K complete medium. Each group had three replicate wells. • 3) Samples were collected after 20 h of drug treatment.
(§3) (All compounds were tested at a final concentration of 45 µM, with 9 serial dilutions at 5-fold intervals. 1 µM BAF-312 was used as the positive control for S1PR1, and 25 µM BAF-312 was used as the positive control for S1PR4.
In general terms: Recruitment of arrestin is a read-out of receptor activation apart from second messengers.
With `CCc1cc(/C(C)=N/OCc2ccc(-c3cnc(F)cn3)cc2F)ccc1CN1CC[C@H](C(=O)O)C1` [Compound 87, (S, E)-1-(2-ethyl-4-(1-(((2-fluoro-4-(5-fluoropyrazin-2-yl)benzyl)oxy)imino)ethyl)benzyl)pyrrolidine-3-carboxylic acid], the EC50 came to 17.4 ± 0.39 nM.
In the case of `CCc1cc(/C(C)=N/OCc2ccc(-c3cnc(F)cn3)c(C)c2)ccc1CN1CCCC(C(=O)O)C1` (centres unmarked) [Compound 92, (E)-1-(2-ethyl-4-(1-(((3-methyl-4-(5-fluoropyrazin-2-yl)-benzyl)oxy)imino)ethyl)benzyl)piperidine-3-carboxylic acid], the EC50 was more than 10000 nM.
Still for that read-out and setting: for `CCc1cc(/C(C)=N/OCc2ccc(-c3cnc(F)cn3)c(C)c2)ccc1CN1CC(C(=O)O)C1` [Compound 91, (E)-1-(2-ethyl-4-(1-(((3-methyl-4-(5-fluoropyrazin-2-yl)-benzyl)oxy)imino)ethyl)benzyl)azetidine-3-carboxylic acid] the value was more than 10000 nM; for `CCc1cc(/C(C)=N/OCc2ccc(-c3ccc(F)nc3)c(C)c2)ccc1CN1CC[C@H](C(=O)O)C1` [Compound 53, (S, E)-1-(2-ethyl-4-(1-(((4-(6-fluoropyridin-3-yl)-3-methylbenzyl)oxy)imino)ethyl)benzyl)pyrrolidine-3-carboxylic acid], 7.02 ± 0.59 nM.
On the same count and under the same terms, for `CCc1cc(/C(C)=N/OCc2ccc(-c3cnc(O)cn3)c(C)c2)ccc1CN1CC[C@H](C(=O)O)C1` [Compound 5, (S, E)-1-(2-ethyl-4-(1-(((3-methyl-4-(5-hydroxypyrazin-2-yl)-benzyl)oxy)imino)ethyl)benzyl)pyrrolidine-3-carboxylic acid] the value was 4.22 ± 1.19 nM.
With `CCc1cc(/C(C)=N/OCc2ccc(C3=CCCC3)c(C)c2)ccc1CN1CC[C@H](C(=O)O)C1` [Compound 63], the EC50 amounted to 5.86 ± 0.27 nM.
Still for that read-out and setting: for `C/C(=N\OCc1ccc(C2CCCCC2)c(C(F)(F)F)c1)c1ccc(CNCCCC(=O)O)cc1` [Compound 8, (E)-4-((4-((1-((4-cyclohexyl-3-(trifluoromethyl)benzyl)oxy)imino)ethyl)benzyl)amino)butanoic acid] the value was 2400 nM.
The same measure, in the same setting: for `CCc1cc(/C(C)=N/OCc2ccc(-c3cnn(C)c3)cc2F)ccc1CN1CC[C@H](C(=O)O)C1` [Compound 58] the value was more than 10000 nM.
As to `CCc1cc(/C(C)=N/OCc2ccc(-c3cccs3)c(C)c2)ccc1CN1CC[C@H](C(=O)O)C1` [Compound 72, (S, E)-1-(2-ethyl-4-(1-(((3-methyl-4-(thiophen-2-yl)benzyl)oxy)imino)ethyl)benzyl)pyrrolidine-3-carboxylic acid], the concentration giving a half-maximal response (EC50) was 1.51 ± 0.64 nM.
Same read-out and setting: the figure for `CCc1cc(/C(C)=N/OCc2ccc(C3=CCCCC3)c(C)c2)ccc1CN1CC[C@H](C(=O)O)C1` [Compound 61] is 3.33 ± 2.5 nM.
The same measure, in the same setting: for `CCc1cc(/C(C)=N/OCc2ccc(-c3ccncn3)c(C)c2)ccc1CN1CC[C@H](C(=O)O)C1` [Compound 76, (S, E)-1-(2-ethyl-4-(1-(((3-methyl-4-(pyrimidin-4-yl)benzyl)oxy)imino)ethyl)benzyl)pyrrolidine-3-carboxylic acid] the value was 4.39 ± 0.91 nM; for `CCc1cc(/C(C)=N/OCc2ccc(C3CCCC3)c(C)c2)ccc1CN1CC[C@H](C(=O)O)C1` [Compound 62, (S, E)-1-(2-ethyl-4-(1-(((4-cyclopentyl-3-methylbenzyl)oxy)imino)ethyl)benzyl)pyrrolidine-3-carboxylic acid], 3.31 ± 0.24 nM.

The target in the next assay is T2, hS1P1 (Homo sapiens, UniProt P21453).
T2 construct: expressed in transfected cells; host or cells: CHO
T2 sequence (P21453 whole entry): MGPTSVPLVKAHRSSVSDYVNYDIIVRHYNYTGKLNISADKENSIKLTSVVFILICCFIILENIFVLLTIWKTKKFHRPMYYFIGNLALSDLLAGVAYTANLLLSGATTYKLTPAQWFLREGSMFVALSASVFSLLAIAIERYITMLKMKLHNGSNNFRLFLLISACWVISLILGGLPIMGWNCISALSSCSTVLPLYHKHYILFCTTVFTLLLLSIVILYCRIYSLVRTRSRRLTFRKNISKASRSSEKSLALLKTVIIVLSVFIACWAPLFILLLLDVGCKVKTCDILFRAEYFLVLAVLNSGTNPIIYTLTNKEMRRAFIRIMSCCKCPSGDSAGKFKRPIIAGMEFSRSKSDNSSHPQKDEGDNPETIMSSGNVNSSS
Nature of the assay: Tango β-arrestin recruitment luciferase assay, Tango-hS1P1-CHO. It counts as cell-based. The settings on record: β-arrestin recruitment; 20 h drug treatment; top 45 µM, 9 serial 5-fold dilutions; positive control 1 µM BAF-312; read-out: Tango-hS1P1-CHO EC50.
Excerpt: as §1, §2, §3
In the case of `CCc1cc(/C(C)=N/OCc2ccc(-c3cnc(F)cn3)cc2F)ccc1CN1CC[C@H](C(=O)O)C1` [Compound 87, (S, E)-1-(2-ethyl-4-(1-(((2-fluoro-4-(5-fluoropyrazin-2-yl)benzyl)oxy)imino)ethyl)benzyl)pyrrolidine-3-carboxylic acid], the EC50 is more than 10000 nM.
On the same count and under the same terms, for `CCc1cc(/C(C)=N/OCc2ccc(-c3cnsc3)cc2)ccc1CN1CC[C@H](C(=O)O)C1` [Compound 74] the value was more than 10000 nM.
Same read-out and setting: the figure for `CCc1cc(/C(C)=N/OCc2ccc(-c3cnc(F)cn3)c(C)c2)ccc1CN1CCCC(C(=O)O)C1` (centres unmarked) [Compound 92, (E)-1-(2-ethyl-4-(1-(((3-methyl-4-(5-fluoropyrazin-2-yl)-benzyl)oxy)imino)ethyl)benzyl)piperidine-3-carboxylic acid] is more than 10000 nM; for `CCc1cc(/C(C)=N/OCc2ccc(-c3ccccc3)c(C)c2)ccc1CN1CCCC(C(=O)O)C1` (centres unmarked) [Compound 33] it is 454 nM; for `CCc1cc(/C(C)=N/OCc2ccc(-c3ccccc3)cc2)ccc1CN1CC(C(=O)O)C1` [Compound 20, (E)-1-(4-(1-(([1,1'-biphenyl]-4-ylmethoxy)imino)ethyl)-2-ethylbenzyl)azetidine-3-carboxylic acid] it is 782 ± 24.9 nM.
`CCc1cc(/C(C)=N/OCc2ccc(-c3ccc(F)nc3)cc2F)ccc1CN1CC[C@H](C(=O)O)C1` [Compound 65]: the EC50 is more than 10000 nM.
The same measure, in the same setting: for `CCc1cc(/C(C)=N/OCc2ccc(-c3c(C)noc3C)c(C)c2)ccc1CN1CC[C@H](C(=O)O)C1` [Compound 45] the value was more than 10000 nM; for `CCc1cc(/C(C)=N/OCc2c(F)cc(-c3ccc(F)nc3)cc2F)ccc1CN1CC[C@H](C(=O)O)C1` [Compound 86, (S, E)-1-(2-ethyl-4-(1-(((2,6-difluoro-4-(6-fluoropyridin-3-yl)benzyl)oxy)imino)ethyl)benzyl)pyrrolidine-3-carboxylic acid], more than 10000 nM.
The same measure, in the same setting: for `CCc1cc(/C(C)=N/OCc2ccc(-c3ccc(F)nc3)nc2)ccc1CN1CC[C@H](C(=O)O)C1` [Compound 66, (S, E)-1-(2-ethyl-4-(1-(((6'-fluoro-[2,3'-bipyridin]-5-yl)methoxy)imino)ethyl)benzyl)pyrrolidine-3-carboxylic acid] the value was more than 10000 nM; for `CCc1cc(/C(C)=N/OCc2ccc(-c3cncn3C)c(C)c2)ccc1CN1CC[C@H](C(=O)O)C1` [Compound 44], more than 10000 nM.
In the case of `CCc1cc(/C(C)=N/OCc2ccc(-c3cnn(C(C)(C)C)c3)c(C)c2)ccc1CN1CC[C@H](C(=O)O)C1` [Compound 39], the EC50 was more than 10000 nM.
Consider `CCc1cc(/C(C)=N/OCc2ccc3ccccc3c2)ccc1CN1CC(C(=O)O)C1` [Compound 15], for which the EC50 came out at 807 nM.
The same measure, in the same setting: for `CCc1cc(/C(C)=N/OCc2ccc(-c3cncnc3C)c(C)c2)ccc1CN1CC[C@H](C(=O)O)C1` [Compound 83, (S, E)-1-(2-ethyl-4-(1-(((3-methyl-4-(4-methylpyrimidin-5-yl)benzyl)oxy)imino)ethyl)benzyl)pyrrolidine-3-carboxylic acid] the value was more than 10000 nM.
Same read-out and setting: the figure for `CCc1cc(/C(C)=N/OCc2ccc(-c3cncnc3)c(F)c2)ccc1CN1CC[C@H](C(=O)O)C1` [Compound 71, (S, E)-1-(2-ethyl-4-(1-(((3-fluoro-4-(pyrimidin-5-yl)benzyl)oxy)imino)ethyl)benzyl)pyrrolidine-3-carboxylic acid] is more than 10000 nM; for `CCc1cc(/C(C)=N/OCc2ccc(-c3cncnc3)cc2)ccc1CN1CC[C@H](C(=O)O)C1` [Compound 70, (S, E)-1-(2-ethyl-4-(1-(((4-(pyrimidin-5-yl)benzyl)oxy)imino)ethyl)benzyl)pyrrolidine-3-carboxylic acid] it is more than 10000 nM.
As for `CCc1cc(/C(C)=N/OCc2ccc3c(c2)CCCC3)ccc1CN1CC(C(=O)O)C1` [Compound 23, (E)-1-(2-ethyl-4-(1-(((5,6,7,8-tetrahydronaphthalen-2-yl)methoxy)imino)ethyl)benzyl)azetidine-3-carboxylic acid], the EC50 was found to be 560 nM.
Same read-out and setting: for `CCc1cc(/C(C)=N/OCc2ccc(-c3cnn(C)c3)c(C)c2)ccc1CN1CC[C@H](C(=O)O)C1` [Compound 40] the value was more than 10000 nM; for `CCc1cc(/C(C)=N/OCc2ccc(-c3cnc(F)nc3)cc2F)ccc1CN1CC[C@H](C(=O)O)C1` [Compound 79, (S, E)-1-(2-ethyl-4-(1-(((2-fluoro-4-(2-fluoropyrimidin-5-yl)benzyl)oxy)imino)ethyl)benzyl)pyrrolidine-3-carboxylic acid], more than 10000 nM.
Still for that read-out and setting: the figure for `CCc1cc(/C(C)=N/OCc2ccc(-c3ccnnc3)c(C)c2)ccc1CN1CC[C@H](C(=O)O)C1` [Compound 84, (S, E)-1-(2-ethyl-4-(1-(((3-methyl-4-(pyridazin-4-yl)benzyl)oxy)imino)ethyl)benzyl)pyrrolidine-3-carboxylic acid] is more than 10000 nM; for `CCc1cc(/C(C)=N/OCc2ccc(-c3ccns3)cc2)ccc1CN1CC[C@H](C(=O)O)C1` [Compound 75] it is more than 10000 nM.

The values above are taken from patent EP4790048A1, “S1PR4 REGULATOR COMPOUND FOR AUTOIMMUNE DISEASE TREATMENT AND APPLICATION THEREOF” (Shengyuan Zetong (Shanghai) Pharmaceutical Co., Ltd, priority 2023, dated 2025).
